Where “and” joins values, the source holds several entries; their conditions need not be identical. Identical values can stand only once.
What was measured:
Format in all cases: cell-based
320 non-olfactory GPCRs [1] = molecular target: T1, 320 non-olfactory GPCRs (Homo sapiens, UniProt P13945)
T1 construct: expressed in transfected cells; host or cells: HTLA cells

320 non-olfactory GPCRs [2] = molecular target: T2, 320 non-olfactory GPCRs (Homo sapiens, UniProt P0DMS8)
T2 construct: expressed in transfected cells; host or cells: HTLA cells
T2 sequence (P0DMS8 whole entry): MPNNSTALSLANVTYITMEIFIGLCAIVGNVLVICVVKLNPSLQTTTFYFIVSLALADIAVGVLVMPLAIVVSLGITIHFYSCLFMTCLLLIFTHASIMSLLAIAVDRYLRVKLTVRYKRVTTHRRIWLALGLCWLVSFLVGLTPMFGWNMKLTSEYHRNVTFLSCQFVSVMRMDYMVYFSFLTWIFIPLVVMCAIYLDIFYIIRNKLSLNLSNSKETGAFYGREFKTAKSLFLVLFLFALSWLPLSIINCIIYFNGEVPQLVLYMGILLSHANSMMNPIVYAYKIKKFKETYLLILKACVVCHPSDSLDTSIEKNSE

320 non-olfactory GPCRs [3] = molecular target: 320 non-olfactory GPCRs (Homo sapiens, UniProt P21917)
Chain of 320 non-olfactory GPCRs (Homo sapiens, UniProt P21917) (P21917 whole entry): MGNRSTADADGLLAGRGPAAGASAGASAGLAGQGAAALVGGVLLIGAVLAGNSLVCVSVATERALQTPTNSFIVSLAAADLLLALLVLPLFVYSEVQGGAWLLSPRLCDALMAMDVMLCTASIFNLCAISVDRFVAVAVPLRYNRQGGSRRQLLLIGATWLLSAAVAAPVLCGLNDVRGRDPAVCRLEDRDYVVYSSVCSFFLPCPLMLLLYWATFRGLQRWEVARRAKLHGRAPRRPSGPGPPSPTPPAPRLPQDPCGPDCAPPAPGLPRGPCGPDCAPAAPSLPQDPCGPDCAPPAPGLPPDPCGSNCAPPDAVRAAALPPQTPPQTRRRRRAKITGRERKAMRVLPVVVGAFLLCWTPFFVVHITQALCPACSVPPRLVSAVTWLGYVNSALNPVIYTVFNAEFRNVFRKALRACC

320 non-olfactory GPCRs [4] = molecular target: T3, 320 non-olfactory GPCRs (Homo sapiens, UniProt P51582); settings: receptor P2RY4; replicate values, Fig_4g
T3 construct: expressed in transfected cells; host or cells: HTLA cells
T3 sequence (P51582 whole entry): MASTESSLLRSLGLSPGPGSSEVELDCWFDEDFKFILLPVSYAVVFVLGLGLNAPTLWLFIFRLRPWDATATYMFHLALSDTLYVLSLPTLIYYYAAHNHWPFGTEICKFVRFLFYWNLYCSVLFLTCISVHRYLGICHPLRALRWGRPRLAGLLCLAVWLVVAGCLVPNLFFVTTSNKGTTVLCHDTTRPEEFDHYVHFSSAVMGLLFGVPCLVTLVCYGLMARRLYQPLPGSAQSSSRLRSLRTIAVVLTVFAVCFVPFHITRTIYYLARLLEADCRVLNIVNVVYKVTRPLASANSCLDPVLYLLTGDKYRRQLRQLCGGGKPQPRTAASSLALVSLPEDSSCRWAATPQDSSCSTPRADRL
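Throughout, for Fold of Basal: compound tested at 1 µM final concentration.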
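Throughout, for GPCRome agonism screen response: fold over basal response of each receptor without drug.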

T1 sequence (P13945 whole entry): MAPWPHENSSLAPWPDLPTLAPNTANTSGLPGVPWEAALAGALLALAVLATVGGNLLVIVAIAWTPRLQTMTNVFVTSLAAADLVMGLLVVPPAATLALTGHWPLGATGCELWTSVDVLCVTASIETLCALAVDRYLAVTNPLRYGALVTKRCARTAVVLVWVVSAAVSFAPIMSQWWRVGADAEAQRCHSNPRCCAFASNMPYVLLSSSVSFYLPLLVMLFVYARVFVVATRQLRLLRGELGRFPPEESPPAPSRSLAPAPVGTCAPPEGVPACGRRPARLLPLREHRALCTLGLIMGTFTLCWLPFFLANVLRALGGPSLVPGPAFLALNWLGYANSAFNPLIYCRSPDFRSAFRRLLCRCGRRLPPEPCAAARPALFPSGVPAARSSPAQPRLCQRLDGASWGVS

CCOc1cccc2cc(C(C)NCC3(O)CCCCC3)oc12 (stereo not shown) [O4LE6]
Fold of Basal (320 non-olfactory GPCRs [1]): 1.471 and 1.539 and 1.208 and 0.8362 | Fold of Basal (320 non-olfactory GPCRs [2]): 1.06 and 1.364 and 1.085 and 1.781 | Fold of Basal (320 non-olfactory GPCRs [3]): 1.429 and 1.1388 and 0.8668 and 1.288 | GPCRome agonism screen response (320 non-olfactory GPCRs [4]): 0.9286 and 1.003 and 1.314 and 2.009

— paper PMC7044277 (Nature Communications, 2020)
